Experimental data: the supplement of paper PMC13380429
± gives the standard deviation of the averaged measurements.

Tests used:
Conditions in all cases: 72 h
Caco-2 [1] = test: cell viability relative to DMSO; higher = less toxic
Calu-3 [2] = test: as above
HepG2 [3] = test: as above
U2OS [4] = test: as above
Vero E6 [5] = test: as above
Caco-2 [6] = test: relative viability EC50 (midpoint between 100% and the lowest measured viability); higher = less toxic
Calu-3 [7] = test: as above
HepG2 [8] = test: as above
U2OS [9] = test: as above
Vero E6 [10] = test: as above
Caco-2 [11] = test: drug sensitivity score (DSS) for viability; higher = more toxic; extreme values may be limits of the assay
Calu-3 [12] = test: as above
HepG2 [13] = test: as above
U2OS [14] = test: as above
Vero E6 [15] = test: as above

Row | Compound | cell viability (Caco-2 [1]; 1 nM) [%] | cell viability (Caco-2 [1]; 10 nM) [%] | cell viability (Caco-2 [1]; 100 nM) [%] | cell viability (Caco-2 [1]; 1000 nM) [%] | cell viability (Caco-2 [1]; 10000 nM) [%] | cell viability (Calu-3 [2]; 1 nM) [%] | cell viability (Calu-3 [2]; 10 nM) [%] | cell viability (Calu-3 [2]; 100 nM) [%] | cell viability (Calu-3 [2]; 1000 nM) [%] | cell viability (Calu-3 [2]; 10000 nM) [%] | cell viability (HepG2 [3]; 1 nM) [%] | cell viability (HepG2 [3]; 10 nM) [%] | cell viability (HepG2 [3]; 100 nM) [%] | cell viability (HepG2 [3]; 1000 nM) [%] | cell viability (HepG2 [3]; 10000 nM) [%] | cell viability (U2OS [4]; 1 nM) [%] | cell viability (U2OS [4]; 10 nM) [%] | cell viability (U2OS [4]; 100 nM) [%] | cell viability (U2OS [4]; 1000 nM) [%] | cell viability (U2OS [4]; 10000 nM) [%] | cell viability (Vero E6 [5]; 1 nM) [%] | cell viability (Vero E6 [5]; 10 nM) [%] | cell viability (Vero E6 [5]; 100 nM) [%] | cell viability (Vero E6 [5]; 1000 nM) [%] | cell viability (Vero E6 [5]; 10000 nM) [%] | relative viability EC50 (Caco-2 [6]) [µM] | relative viability EC50 (Calu-3 [7]) [µM] | relative viability EC50 (HepG2 [8]) [µM] | relative viability EC50 (U2OS [9]) [µM] | relative viability EC50 (Vero E6 [10]) [µM] | drug sensitivity score (Caco-2 [11]) | drug sensitivity score (Calu-3 [12]) | drug sensitivity score (HepG2 [13]) | drug sensitivity score (U2OS [14]) | drug sensitivity score (Vero E6 [15])
1 | CN1C(=O)N(c2ccc(C#N)c(C(F)(F)F)c2)C(=O)[C@]1(CO)c1ccccc1 [GLPG0492-R-enantiomer] | 96.1 ± 13 | 99.5 ± 4.8 | 94.4 ± 5.4 | 96 ± 7.1 | 93.7 ± 7.5 | 95.9 ± 3.8 | 109 ± 4.2 | 106 ± 3.9 | 105 ± 2.9 | 110 ± 15 | 102 ± 8.3 | 103 ± 2.5 | 102.8 ± 0.78 | 100 ± 5.1 | 102 ± 3.8 | 101 ± 4.5 | 104 ± 3.9 | 99 ± 1.3 | 101 ± 5.1 | 97.5 ± 4.2 | 96.6 ± 0.28 | 101 ± 2.3 | 96.7 ± 4.3 | 97 ± 0.99 | 94.3 ± 8.8 | > 10 | > 10 | > 10 | > 10 | > 10 | 0 | 0 | 0 | 0 | 0
2 | O=C(O)CCNc1cc(N2CCc3ccccc3CC2)nc(-c2cccnc2)n1 [GSK-J2] | 96.6 | 100 | 98.6 | 94.8 | 87.1 | 100 | 97.1 | 91.5 | 105 | 97.2 | 99.7 | 97.3 | 96.6 | 98.8 | 103 | 98.5 | 95.4 | 94.8 | 98.3 | 91.2 | 97.3 | 108 | 98.9 | 98 | 99.1 | > 10 | > 10 | > 10 | > 10 | > 10 | 0.2 | 0 | 0 | 0 | 0
3 | Cc1cc(SCc2sc(-c3ccc(C(F)(F)F)c(F)c3)nc2C)ccc1OCC(=O)O [GW-0742] | 99.9 | 101 | 89.1 | 106 | 87.2 | 95.1 | 94.8 | 92.5 | 90.5 | 98.3 | 102 | 74.6 | 94 | 90.1 | 99.9 | 102 | 103 | 97.9 | 104 | 99.7 | 96.3 | 101 | 96.7 | 98.3 | 99 | > 10 | > 10 | > 10 | > 10 | > 10 | 0 | 0 | 0 | 0 | 0
4 | CCC(=O)N1CCOc2c(cc(-c3ccc(OC)c(OC)c3)cc2OC[C@H]2CCCN(C)C2)C1 [I-CBP-112] | 101 | 99.9 | 103 | 98.6 | 94.7 | 96.6 | 95 | 99.5 | 95.9 | 87.4 | 96.6 | 107 | 87.5 | 104 | 86 | 98.5 | 92 | 95.5 | 95.3 | 97.8 | 105 | 102 | 97.2 | 105 | 78.4 | > 10 | > 10 | > 10 | > 10 | > 10 | 0 | 0.3 | 0.1 | 0 | 0.5
5 | CN1C(=O)c2c(nn(Cc3ccc(-c4cccc(F)n4)cc3)c2Nc2ccccc2)N2C1=N[C@@H]1CCC[C@@H]12 [ITI214] | 87.3 | 104 | 97.4 | 94.8 | 117 | 105 | 87 | 100 | 101 | 92.8 | 105 | 96.7 | 97.9 | 102 | 79.7 | 106 | 102 | 102 | 96.7 | 89.3 | 110 | 113 | 99.6 | 104 | 97.2 | > 10 | > 10 | > 10 | > 10 | > 10 | 0 | 0 | 0.5 | 0 | 0
6 | O=C(NCCO)c1cc(C(=O)NCCO)cc(C(=O)NCCO)c1 [LM-22A4] | 96.8 | 96.1 | 97.3 | 99.2 | 100 | 104 | 105 | 97 | 102 | 91.9 | 104 | 103 | 101 | 97.5 | 102 | 94.6 | 97.7 | 96.1 | 99.5 | 93.5 | 105 | 98.3 | 106 | 98.4 | 105 | > 10 | > 10 | > 10 | > 10 | > 10 | 0 | 0 | 0 | 0 | 0
7 | FC(F)(F)c1ccc(Nc2ncnc3cc(-c4ncccc4C(F)(F)F)ccc23)cc1 [MK-2295] | 100 | 95.8 | 91.9 | 83.9 | 90.6 | 112 | 96.9 | 101 | 100 | 81.9 | 92.7 | 94.9 | 91.5 | 116 | 98.4 | 100 | 95.5 | 101 | 98 | 97.5 | 99.7 | 98 | 98.3 | 97.8 | 95.2 | > 10 | > 10 | > 10 | > 10 | > 10 | 1.2 | 0.5 | 0 | 0 | 0
8 | Cn1cnnc1Sc1c([N+](=O)[O-])ncn1C [MNITMT] | 99.9 | 96.3 | 104 | 94.2 | 95.8 | 100 | 111 | 94.9 | 85.5 | 92.2 | 100 | 99.9 | 93.1 | 94.1 | 99.7 | 102 | 97.7 | 99.5 | 97.4 | 98.4 | 105 | 99.3 | 99.2 | 97.5 | 88.7 | > 10 | > 10 | > 10 | > 10 | > 10 | 0 | 1.7 | 0 | 0 | 0.1
9 | O=C(NCCCCN1CCN(c2cccc(Cl)c2Cl)CC1)c1ccc2c(c1)Cc1ccccc1-2 [NGB-2904] | 89.4 | 97.2 | 97 | 109 | 103 | 94.3 | 97.9 | 86.5 | 108 | 99.9 | 107 | 94.1 | 99.3 | 91.2 | 92.9 | 93.5 | 102 | 95.6 | 102 | 100 | 96.7 | 91.2 | 93.6 | 89.5 | 98.3 | > 10 | > 10 | > 10 | > 10 | > 10 | 0 | 0 | 0 | 0 | 0
10 | CC(C)(C)/[N+]([O-])=C/c1ccc(S(=O)(=O)O)cc1S(=O)(=O)O [NXY-059] | 98.5 | 101 | 96.5 | 105 | 97.5 | 91.3 | 97 | 98.4 | 95 | 95.8 | 101 | 94.4 | 102 | 100 | 96.8 | 94.6 | 100 | 93.4 | 98.7 | 106 | 99.1 | 105 | 106 | 105 | 101 | > 10 | > 10 | > 10 | > 10 | > 10 | 0 | 0 | 0 | 0 | 0
11 | Cc1ccccc1CN1C(=O)C2=C(CCN(Cc3ccccc3)C2)N2CCN=C12 [ONC201] | 108 | 106 | 93.4 | 107 | 44.1 | 103 | 103 | 102 | 106 | 75.7 | 108 | 93.7 | 104 | 91.6 | 10.3 | 100 | 102 | 95.4 | 106 | 41.1 | 110 | 101 | 103 | 102 | 32.2 | 3.72 | > 10 | 2.39 | 3.64 | 3.35 | 2.5 | 0.6 | 6.3 | 2.8 | 3.5
12 | CN1CC[C@@H](c2c(O)cc(O)c3c(=O)cc(-c4ccccc4Cl)oc23)[C@@H]1CO [P276-00] | 101 | 108 | 95.1 | 57.6 | 21.8 | 108 | 103 | 94.5 | 59 | 38.2 | 114 | 94.7 | 101 | 6.6 | 7.6 | 97.6 | 100 | 90.3 | 49.3 | 3 | 103 | 95.8 | 102 | 63.9 | 6.1 | 0.881 | 0.604 | 0.324 | 0.878 | 1.21 | 9.4 | 8.5 | 16.7 | 11.5 | 10.1
13 | O=C(/C=C/c1ccc2ccc(C(F)(F)F)cc2n1)c1ccncc1 [PFK-158] | 95.9 | 92.8 | 102 | 92.3 | 88.2 | 92.1 | 96.3 | 90.5 | 104 | 89.9 | 97.1 | 84.6 | 96.3 | 102 | 44.9 | 94.4 | 100 | 93.9 | 101 | 0 | 105 | 86.7 | 110 | 92.1 | 87.3 | > 10 | > 10 | 3.37 | 3.22 | > 10 | 0 | 0 | 2.8 | 5.5 | 0.5
14 | Nc1cc(C(F)(F)F)c(-c2nc(N3CCOCC3)nc(N3CCOCC3)n2)cn1 [PI3K-IN-2] | 107 | 106 | 97.7 | 63.3 | 17.1 | 88.3 | 102 | 78.1 | 48 | 21.4 | 124 | 106 | 101 | 59.4 | 25.1 | 103 | 106 | 99 | 89.7 | 24.5 | 106 | 106 | 105 | 70 | 30 | 1.12 | 0.376 | 0.935 | 2.07 | 1.12 | 9.1 | 12.4 | 9.1 | 5.9 | 7.8
